Each structure is given as a SMILES string.

Experiment [1] has as its system NativeSkin® skin explants (Genoskin). Briefly: Breaks in the DNA (γ-H2AX marking) of NativeSkin skin explant ex vivo after UVA irradiation. The experiment is classed as cell-based, human. The settings on record: composition 0.9 mmol/L topical, 60 J/cm^2 UVA every day for 3 days, n=10 images, FIG. 7. How it is done:
(§1) The test was carried out on NativeSkin® skin explants (Genoskin), a biopsy of skin bathed in a solid, nourishing matrix while its epidermal surface is preserved in contact with the air. The biopsy is firmly anchored in the matrix and sealed in order to prevent any lateral diffusion of formulation intended for topical application.
(§2) The study was carried out on a donor (phototype 2) under the following conditions.
(§3) The compounds tested are implemented in a composition containing them at 0.9 mmol/L in a mixture of Carbopol® (0.5% p/p), DMSO (0.1% p/p) and H2O (qsp 100%).
(§4) The samples are irradiated at 60 J/cm^2 UVA every day for 3 days. A treatment is carried out for 24 h before the irradiation, by application of the composition tested onto the sample (deposition of 40 μl of composition onto the stratum corneum), then a post-treatment of 24 h after the irradiation, in the same manner.
(§5) A Control of the sample of skin non-irradiated and a Control of the sample of skin irradiated are also carried out, both with application of the vehicle alone (0.5% Carbopol®, 0.1% DMSO, H2O). The Control of the non-irradiated sample of skin is introduced into the irradiator in a sheet of aluminium, in such a way as to protect it against UVs.
(§6) The samples are sampled, cut (according to the conventional method of cryo-sectioning implementing paraffin and freezing) and fixed in 1 ml of formalin for 24 h.
(§7) The explants are then included in paraffin and sections of 5 μm are made.
The slides obtained are also marked by immunohistochemistry with the biomarker γ-H2Ax.
(§8) The analysis of the marking is carried out with a DM5000B fluorescence microscope (Leica Microsystems) and 10 images are acquired for each sample.
For the marking with γ-H2Ax, for each image, the total number of nuclei is detected with 4′,6-diamidino-2-phenylindole (dapi). In the same image, the number of nuclei having the marking is quantified. The ratio of the number of positive nuclei, multiplied by 100, to the number of total nuclei, is calculated, in order to obtain a percentage (=(positive nuclei*100)/total nuclei), n=10 per sample.
A statistical analysis is carried out with a student's test by comparing the samples to the control (p value[…], p value<0.05**, p value<0.005***, ns not significant).

Experiment [2] shares this test system. Briefly: Histological analysis (haematoxylin/eosin) of NativeSkin skin explant ex vivo after UVA irradiation. The experiment is classed as cell-based, human. The settings on record: composition 0.9 mmol/L topical, 60 J/cm^2 UVA every day for 3 days, FIG. 5. How it is done: as §1, §2, §3, §4, §5, §6, §7
The slides are then coloured with haematoxylin (basic compound marking the nuclei) and eosin (acidic compound marking the conjunctive tissue).
as §8

The subject of a further experiment is NHEK cells. Briefly: Survival (WST1) of NHEK keratinocytes exposed to cigarette extract, comparison with caffeic acid. The settings on record: compound 10 ppm pretreatment 24 h and treatment 24 h, cigarette extract 1/50, cigarette extract alone 55% survival, FIG. 4. The experiment is classed as cell-based, human. The procedure:
This study aims to compare the protective or repairing effect of the compounds according to the invention (Ia) and (Ib) with respect to the damage induced on the skin by a cigarette extract. For comparison, caffeic acid (supplier: Acros) is also tested. This acid forms a basic unit of the compounds (Ia) and (Ib) according to the invention.
The NHEK cells are inoculated in a 96-well plate in a suitable medium (Promocell), at a rate of 9000 cells per well, and incubated 24 h at 37° C. and 5% carbon dioxide.
The compounds to be tested are prepared as follows: • (Ia): 10 mg of compound+909 μL of DMSO • (Ib): 7 mg of compound+636 μL of DMSO • caffeic acid: 10 mg of compound+909 μL of DMSO
Each stock solution above is diluted 1000 times, to 10 ppm in the culture medium, then the solutions obtained are filtered by means of a nylon filter (0.22 μm). The final solutions are concentrated to 10 ppm in 0.1% DMSO.
Solutions at 20 ppm in 0.2% DMSO are also prepared in a similar manner, for dilution in the cigarette extract.
An extract of 20 cigarettes is prepared as indicated in example 14 above. This extract is then diluted to 1/50 in the culture medium; or to 2/50 in the culture medium, then to 1/2 in the culture medium, to which the compound to be tested is added at 20 ppm.
The cells are pretreated for 24 h with the compound to be tested at 10 ppm in the culture medium.
The cells are then treated with the cigarette extract diluted to 1/50th with or without the compound tested at 10 ppm for 24 h.
3 h before the end of the test, 10 μl of WST1 cellular proliferation reactant (Roche) are added into each well. The absorbance at 450 nm is measured before and after the addition of WST1 reactant, by means of a Multiskan® reader. The treated cells are compared to the untreated cells and to the cells exposed to the cigarette extract.

The next experiment relates to IL-8. Briefly: IL-8 assay (ELISA) in culture supernatants of NHEK after induction with IL-1β. The experiment is classed as cell-based, human. The settings on record: IL-1β 10 ng/ml 24 h, then substance 24 h, compound (Ia) 3 ppm, dexamethasone 0.4 ppm, CTL 0.23, CTL without IL-1β 0.06. How it is done: This study is carried out on normal human Keratinocytes (NHEK).
In this example, the anti-inflammatory properties of the compound (Ia) are evaluated by the assay of the IL-8, after the application of the cytokine IL-1β at 10 ng/ml onto NHEKs. IL-8 is a major inflammatory cytokine produced first of all during the inflammatory response of the keratinocytes. The quantification of the IL-8 in the culture supernatants allows an evaluation of the inflammatory state of the cells.
The IL-1β is added to the culture medium of the NHEKs at a rate of 10 ng/ml for 24 h. After incubation, the culture media are removed and replaced with culture media containing the compound (Ia) at 3 ppm. After 24 h of incubation, the supernatants are collected.
The reference anti-inflammatory element is dexamethasone (Sigma) used at 0.4 ppm. A control having undergone the same experimental conditions without the compound (Ia) (CTL), as well as a non-induced control (CTL without IL-1β), are also carried out.
The quantification of the IL-8 in 50 μl of the culture supernatants is measured by an ELISA test (human CXCL8/IL-8 Immunoassay, R&D Systems).
Each treatment is carried out in triplicate.
In general terms: ELISA stands for enzyme-linked immunosorbent assay.

For experiment [3], the system named is normal human Keratinocytes (NHEK). Briefly: Reactive oxygen species (H2DCFDA probe) in NHEK after single UVA stress. The experiment is classed as cell-based. The settings on record: 24 h incubation; (Ia) 3 ppm, Trolox 20 ppm, Quercetin 18 ppm; UVA 10 J/cm2; normalised to viability (MTS); CTL UVA 289687.6, CTL without stress 16441.9. The procedure:
The cells used for this example are normal human Keratinocytes (NHEK).
The antioxidant properties (neutralising the production of reactive oxygen species) of the compound (Ia) are evaluated after a single stress with UVAs on NHEKs, by a test based on the use of the fluorescent probe H2DCFDA on a triple culture.
H2DCFDA (2′-7′dichlorodihydrofluorescein diacetate, Fischer Scientific) is a probe that, after having diffused into the cell and after its acetate group has been split by intracellular esterases, can be oxidised by free radicals (H2O2) into DCF (2′-7′ dichlorofluorescein), a fluorescent compound. The production of the free radicals can thus be quantified by the level of fluorescence emitted by the oxidised probe. The more the cell produces free radicals, the higher the level of fluorescence detected.
After 24 hours of incubation with the compound (Ia) (3 ppm in an aqueous solution with 0.1% dimethylsulfoxide) or the reference elements, the cells are placed in the presence of the H2DCFDA probe at 3 ppm for 1 hour at 37° C., 5% CO2 in order to allow its intracellular diffusion.
The reference antioxidant elements are: Trolox ([…], Sigma), at 20 ppm and Quercetin (quercetin dihydrate, Sigma), at 18 ppm.
After one rinsing, the cells are subjected to a single stress with UVAs (in the absence of compound (Ia)) at a rate of 10 joules per square centimetre. The quantification of the fluorescence emitted (excitation: 485 nm; emission: 520 nm) is carried out immediately after the end of the UVA stress. […]
In order to provide a result representative of the cellular population of each condition after a single stress with UVAs, a cellular viability test (MTS) is carried out immediately after the quantification of the fluorescence emitted. The fluorescence values are thus normalised with respect to the cellular viabilities in order for it to be possible to compare the levels of fluorescence of the various conditions to each other.

For the molecule `Cc1ncc(CO)c(CNC(=O)CCCC[C@@H]2CCSS2)c1O` [Comp.1, reference compound], the “percentage of nuclei positive for marking with γ-H2AX, compared with controls” value (from here on “percentage of nuclei positive”) in experiment [1] is on record as “level similar to the irradiated sample”. Besides, the “Morphology of the epidermis after UVA irradiation (histological analysis)” value (“Morphology of the epidermis” below) in experiment [2] is “phenotype of the irradiated sample is also found”.
For the molecule `COc1cc(/C=C/C(=O)NCc2c(CO)cnc(C)c2O)ccc1O` [Compound (Ib), (E)-3-(4-hydroxy-3-methoxyphenyl)-N-((3-hydroxy-5-(hydroxymethyl)-2-methylpyridin-4-yl)-methyl)-acrylamide], in the experiment on NHEK cells, the “% survival of the cells” value was found to be 76%.
Take `COc1ccc(/C=C/C(=O)NCc2c(CO)cnc(C)c2O)cc1O` [Compound (Ic), (E)-3-(3-hydroxy-4-methoxyphenyl)-N-((3-hydroxy-5-(hydroxymethyl)-2-methylpyridin-4-yl)-methyl)-acrylamide]: the “percentage of nuclei positive” value in experiment [1] is “same phenotype as the non-irradiated control sample”. In addition, the “Morphology of the epidermis” value in experiment [2] was “totally protected”.
For `Cc1ncc(CO)c(CNC(=O)/C=C/c2ccc(O)cc2)c1O` [Compound (Id), (E)-N-((3-hydroxy-5-(hydroxymethyl)-2-methylpyridin-4-yl)-methyl)-3-(4-hydroxyphenyl)-acrylamide], the “percentage of nuclei positive” value in experiment [1] is given as “clearly reduced with respect to the irradiated control sample”. Further, in experiment [2], the “Morphology of the epidermis” value is “partly protected”.
Turning to `C[C@@H]1C[C@H]2[C@@H]3CCC4=CC(=O)C=C[C@]4(C)[C@@]3(F)[C@@H](O)C[C@]2(C)[C@@]1(O)C(=O)CO` [Dexamethasone, dexamethasone, reference compound], the “Quantification of the IL8 (optical density)” value with IL-8 amounted to 0.13 optical density.
On to `O.O.O=c1c(O)c(-c2ccc(O)c(O)c2)oc2cc(O)cc(O)c12` [Quercetin, quercetin dihydrate, reference compound], for which the “Assay of the fluorescence with H2DCFDA after irradiation of NHEKs with UVAs” value in experiment [3] is 207589.6.
For `O=C(O)/C=C/c1ccc(O)c(O)c1` [caffeic acid, reference compound], the “percentage of nuclei positive” value in experiment [1] is given as “level similar to the irradiated sample”. Moreover, in experiment [2], the “Morphology of the epidermis” value was “phenotype of the irradiated sample is also found”. In the experiment with NHEK cells, the “% survival of the cells” value is reported as 73%.
On to `Cc1ncc(CO)c(CN)c1O` [pyridoxamine, reference compound], for which, in experiment [1], the “percentage of nuclei positive” value is “level similar to the irradiated sample”. For the same molecule, the “Morphology of the epidermis” value in experiment [2] is listed as “phenotype of the irradiated sample is also found”.

Values taken from patent US10918891B2, “Cosmetic treatment method for the skin” (SYNTIVIA, priority 2016, dated 2021).
